Experimental findings from patent US11702449B2, “Angiogenesis-inhibiting peptide and composition for preventing and treating angiogenesis-related disease comprising same as active ingredient” (AVIXGEN INC., priority 2015, dated 2023) are described below.

Square brackets hold non-standard residues; d marks the D form. Peptide text beside a SMILES is read from it.

For series [1], the system named is choroidal neovascularization. In words: Laser-induced choroidal neovascularization mouse model. The format is in vivo. As for the experimental part: To prepare a laser-induced choroidal neovascularization animal model, a Bruch membrane between a retinal layer and a choroidal layer was destroyed by irradiating the mouse retina with a diode laser at an intensity of 400 mW and a duration of 50 ms, and then choroidal neovascularization occurred over 14 days. The retinas of 6 week-old male C57BL/6 mice were irradiated with a laser under the above conditions, the formation of a lesion was confirmed through a safety inspection on day 10, and 1 μl of a 1.5 mM EYLR (SEQ ID NO: 5), RLYE (SEQ ID NO: 2) or Ac-RLYE (SEQ ID NO: 1) solution was intravitreally injected. Here, the same amount of saline was injected into the control group. After 4 days (14 days after the laser irradiation), an experiment for analyzing a therapeutic effect was carried out by extracting the eyeballs of the mice. The extracted eyeballs were fixed in 4% paraformaldehyde for 12 hours, and embedded in paraffin. Sections with a thickness of 4 μm were prepared from paraffin tissue, and subjected to H&E staining. Afterward, an image of a section with the largest choroidal neovascular membrane area was taken from each subject, and the area of the choroidal neovascular membrane was quantitatively analyzed using ImageJ program (NIH, Bethesda, Md., USA). In the saline-injected control group, the average of the choroidal neovascular areas was represented as 100%, and a therapeutic effect of each treatment group was analyzed. Meanwhile, 1 ml (1.25 mg) of FITC-dextran (250 kDa) was injected into the left ventricle one hour before extraction of the mouse eyeball to allow systemic perfusion. After extraction, the eyeball was fixed in 4% paraformaldehyde for 1 hour. Then, the cornea and the crystalline lens were cut off by scissors, the retina was carefully removed using forceps to prepare a complex of retina pigment epithelium/choroid/sclera tissues. The retina flat-mounted complex tissue was observed under a fluorescence microscope and photographed.

A short description of series [2]: Peptide stability analysis in human serum (HPLC). The format is in vitro ADME. The following applies: for half-life at 1 mg/mL: pH 7.4, human serum. As for the experimental part:
(§1) Serum was separated by centrifugation (tabletop centrifuge, 3000 rpm, 20 min) of blood obtained from a healthy person. The serum was filtrated using a filter (Millipore) with a pore size of […], and then 50 μl of the human serum was mixed with 100 μg of RLYE (SEQ ID NO: 2), R(D)LYE (SEQ ID NO: 6), RLYE-NH2 (SEQ ID NO: 3) or Ac-RLYE (SEQ ID NO: 1) (100 μg/50 PBS, pH 7.4), and incubated by time at a constant temperature of 37° C. A peptide concentration of the sample was calculated by a peak area after the sample was separated by C18 reverse phase high-performance liquid chromatography (HPLC; Vydac protein and peptide C18 column, 0.1% trifluoroacetate in H2O for equilibration, and 0.1% trifluoroacetate in acetonitrile for elution).

The subject of series [3] is human umbilical cord vascular endothelial cells (HUVECs). The format is cell-based. As for the experimental part: Migration analysis for human umbilical cord vascular endothelial cells (HUVECs) was carried out using a Transwell culture plate to which a polycarbonate filter (pore size: 8 μm) with a diameter of 6.5 mm was attached. A surface of the filter was coated with 10 μg of gelatin. Fresh M199 medium (1% fetal bovine serum) containing VEGF (10 ng/ml) was added into a lower compartment of the Transwell plate, HUVECs (1×10^6 cells/100 μl) which had reacted with 0.15 nM or 1.5 nM peptides at room temperature for 30 minutes were carefully transferred to an upper compartment of the plate. The resulting HUVECs were cultured in a CO2-constant temperature and humidity chamber for 4 hours, and the cells migrated under the Transwell filter were stained by H&E staining and quantified using an optical microscope.

Series [4] in a line: Peptide stability in PBS. To be noted: incubated in PBS at 37° C. The format is physicochemical. The protocol: as §1
To evaluate RLYE (SEQ ID NO: 2) stability, an RLYE peptide (SEQ ID NO: 2) was added to each of PBS and human serum, and incubated by time at a constant temperature of 37° C.

The test system of series [5] is HUVECs. In words: Tube formation of vascular endothelial cells on Matrigel (VEGF-induced). It is filed as cell-based, human. The protocol:
A degree of tube formation of HUVECs was determined using growth factor-reduced Matrigel. 250 μl of the Matrigel (10 mg protein/ml) was added into a 24-well plate to allow polymerization for 30 minutes at 37° C. HUVECs cultured in M199 (1% fetal bovine serum) medium for 6 hours were carefully transferred onto the Matrigel in the culture plate at a density of 2×10^5 cells/well, and VEGF (10 ng/ml) were cultured alone or with peptides (0.15 nM) at 37° C. for 20 hours. Meanwhile, peptides that were reacted in PBS or fresh human serum for 3 hours were also used. The degree of tube formation of HUVECs was visualized using an inverted phase-contrast microscope, and a length of the formed tube was measured and quantified by Image-Pro Plus version 4.5 (Media Cybernetics, San Diego, Calif.).

Series [6] concerns HCT116 xenograft. In words: Human colon cancer (HCT116) xenografted mouse model, tumor size and growth. It is filed as in vivo. The protocol: Human colon cancer cells (HCT116, 1×10^7 cells/100 μl) were subcutaneously injected into the left side of a nude mouse (BALB/c nu/nu, 6 week old, male), and then when a tumor volume reached at least 50 to 70 mm^3 (approx. 7 days), physiological saline (negative control), RLYE (SEQ ID NO: 2) (1.0 mg/kg), R(D)LYE (SEQ ID NO: 6) (1.0 mg/kg) or Ac-RLYE (SEQ ID NO: 1) (1.0 mg/kg; abnormal, experimental group) was intraperitoneally injected once a day. A VEGF neutralizing antibody, bevacizumab, was intraperitoneally injected at 2 mg/kg twice a week (positive control). A tumor size was two-dimensionally measured using calipers. A tumor volume (mm^3) was calculated by the formula: width^2×length×0.52.
(In xenograft studies the graft and the host belong to different species.)

The subject of series [7] is tumor vessels of HCT116 xenograft. In words: Measurement of tumor angiogenesis (FITC-isolectin B4 staining). It is filed as in vivo, mouse. The following applies: FITC-isolectin B4 staining of tumor tissue. As for the experimental part:
Tumor tissue was fixed with 10% formalin, and inserted into paraffin. A slide was prepared using a tumor tissue section, immersed in xylene to remove paraffin, and rehydrated by stepwise treatment with 100%, 95%, 80%, and 70% ethanol. Afterward, the slide was washed with deionized water several times at room temperature. To inhibit the intracellular activity of a peroxidase, the tissue section was reacted in 0.3% hydrogen peroxide-containing methanol for 15 minutes, and washed with PBS three times. The tissue section was reacted in 3% goat serum-containing PBS for 2 hours at room temperature, and reacted with FITC-isolectin B4 ([…]; Vector Laboratories) for 1 hour. The tissue section was washed with PBS three times and then a permanent slide was prepared using a cryo-mount solution (OCT mouting medium, Tissue Tek, Sakura Finetek), and then tumor vessels were visualized using a fluorescence microscope.

Series [8] concerns retinal vascular leakage. In words: Streptozotocin (STZ)-induced diabetic retinopathy mouse model, retinal vascular leakage. To be noted: STZ diabetic mice. The format is in vivo. The protocol:
A freshly prepared STZ solution (100 mM) in a citrate buffer (100 mM, pH 4.5) was intraperitoneally injected at 150 mg/kg into the mice, and to prevent hypoglycemic shock, 10% sucrose was sufficiently provided. After two days, blood glucose was measured using an Accu-Chek Performa blood glucose meter (Roche Diagnostics GmbH, Germany), and when non-fasting blood glucose within 1 to 2 weeks was maintained at 300 mg/dl or more, the mice were used as diabetic animal models. The diabetes-induced mice were anesthetized with 2% avertin, and 1 μl of a 1.5 mM EYLR (SEQ ID NO: 5), RLYE (SEQ ID NO: 2) or Ac-RLYE (SEQ ID NO: 1) solution was intravitreally injected. Here, the same amount of PBS was injected into the control group. The peptide was injected, and after 24 hours, 1 ml (1.25 mg) of FITC-dextran (250 kDa) was injected into the left ventricle of each mouse to allow circulation for approximately 5 minutes. The mice were euthanized by cervical dislocation, and the eyeballs were extracted and fixed in 4% paraformaldehyde at room temperature for 1 hour. The retina was isolated from the fixed eyeball to prepare a retinal flat mount, and vascular leakage was observed under a confocal microscope. Meanwhile, the fluorescence of FITC-dextran leaked from retinal vessels was measured using Fluoview software.

The mark [9] stands for this setting: 1 μl of 1.5 mM solution intravitreal, H&E area analysis.

As a reminder, the half-life is the time needed for the level to fall by half in the phase considered. Low readings indicate fast loss, high ones slow loss. Usually IC50 stands for the point on the concentration scale where inhibition reaches its midpoint. High values mean weaker potency, low ones greater potency.

On to “EYLR: reverse-sequence of the RLYE peptide [reference compound]”, for which the “effect on choroidal neovascularization” value in series [1] (setting [9]) is listed as “had no change”.

Regarding `CC(C)C[C@H](NC(=O)[C@@H](N)CCCNC(=N)N)C(=O)N[C@@H](Cc1ccc(O)cc1)C(=O)N[C@@H](CCC(=O)O)C(N)=O` [RLYE-NH2] (H-RLYE-NH2; N-terminus assumed), the half-life at 1 mg/mL in series [2] (37° C.) was 1.3 h. The compound further registered an IC50 in series [3] of 0.11 nM.

Turning to `CC(C)C[C@H](NC(=O)[C@@H](N)CCCNC(=N)N)C(=O)N[C@@H](Cc1ccc(O)cc1)C(=O)N[C@@H](CCC(=O)O)C(=O)O` [RLYE, Arg-Leu-Tyr-Glu, reference compound] (H-RLYE-OH; N-terminus and C-terminus assumed), the “RLYE degradation induced by albumin” value in series [2] (albumin added, 37° C.) was “did not induce”. For the same compound, the “RLYE degradation by human serum with bestatin” value in series [2] (aminopeptidase B inhibitor bestatin added) was “effectively inhibited”. This compound also had a half-life at 1 mg/mL in series [2] (37° C.) of 1.2 h. For the same compound, in series [4], the “degradation in PBS” value is reported as “did not occur”. This compound had an IC50 in series [3] of 0.08 nM.

As to `CC(C)C[C@H](NC(=O)[C@H](N)CCCNC(=N)N)C(=O)N[C@@H](Cc1ccc(O)cc1)C(=O)N[C@@H](CCC(=O)O)C(=O)O` [R(D)LYE] (H-[dR]LYE-OH; N-terminus and C-terminus assumed), in series [2] (37° C.), the half-life at 1 mg/mL was 7 h. In addition, the midpoint of inhibition in series [3], the IC50, lay at 0.06 nM.

In the case of `CC(=O)N[C@@H](CCCNC(=N)N)C(=O)N[C@@H](CC(C)C)C(=O)N[C@@H](Cc1ccc(O)cc1)C(=O)N[C@@H](CCC(=O)O)C(N)=O` [Ac-RLYE-NH2] (Ac-RLYE-NH2), the IC50 in series [3] was 80.2 nM.

`CC(=O)N[C@@H](CCCNC(=N)N)C(=O)N[C@@H](CC(C)C)C(=O)N[C@@H](Cc1ccc(O)cc1)C(=O)N[C@@H](CCC(=O)O)C(=O)O` [Ac-RLYE] (Ac-RLYE-OH; C-terminus assumed) showed a half-life at 1 mg/mL in series [2] (37° C.) of 8.8 h. The compound also registered an IC50 in series [3] of 0.05 nM. For the same compound, the “inhibition of VEGF-induced tube formation” value in series [5] (peptides pretreated with PBS for 3 hours) and in series [5] (peptides pretreated with human serum for three hours) was “effectively inhibited” each time. The “anticancer effect compared with RLYE” value in series [6] (1.0 mg/kg/day intraperitoneal, HCT116 nude mouse) was “higher than that of RLYE”. For the same compound, the “effect on size and growth of tumor” value in series [6] (1.0 mg/kg/day intraperitoneal, once a day, HCT116 nude mouse) was “inhibited the size and growth of a tumor”. Further, the “anticancer effect compared with bevacizumab” value in series [6] (peptide 1.0 mg/kg/day i.p., bevacizumab 2.0 mg/kg twice a week) is given as “a little lower than that of the positive control bevacizumab”. Further, the “effect of inhibiting cancer angiogenesis compared with RLYE” value in series [7] was “higher than that of RLYE”. Further, the “choroidal neovascularization inhibition compared with RLYE” value in series [1] (setting [9]) was “highly effective compared to RLYE”. In addition, the “effect on choroidal neovascularization” value in series [1] (setting [9]) was “effectively reduced”. Further, the “choroidal neovascularization inhibition compared with RLYE, retinal flat mount” value in series [1] (FITC-dextran, retinal flat mount technique) was “higher effect of inhibiting choroidal neovascularization than RLYE”. The “effect on retinal vascular leakage” value in series [8] (1 μl of 1.5 mM solution intravitreal, 24 hours) is given as “effectively inhibited”. Moreover, in series [8] (intravitreal), the “inhibitory effect on retinal vascular leakage compared with RLYE” value is “higher inhibitory effect on blood vascular leakage than RLYE”.
